Measured values as given in the supplement of paper PMC9663587.

Assays:
[1] = compound: C=CC(=O)Nc1ccc(C(=O)Nc2[nH]nc3c2CN(C(=O)N[C@H](CN(C)C)c2ccccc2)C3(C)C)cc1 [YKL-5-124]
[2] = compound: CC1=C(N=C(N=C1N)[C@H](CC(=O)N)NC[C@@H](C(=O)N)N)C(=O)N[C@@H]([C@H](C2=CN=CN2)OC3C(C(C(C(O3)CO)O)O)OC4C(C(C(C(O4)CO)O)OC(=O)N)O)C(=O)N[C@H](C)[C@H]([C@H](C)C(=O)N[C@@H]([C@@H](C)O)C(=O)NCCC5=NC(=CS5)C6=NC(=CS6)C(=O)NCCC[S+](C)C)O [Bleomycin]; conditions: main component drawn
[3] = compound: CCC(=O)Nc1ccc(C(=O)Nc2ccc(Nc3ncc4c(n3)N(C)c3ccc(C)cc3C(=O)N4C)cc2)cc1 [FMF-03-145-1]
[4] = compound: CC[C@@]1(O)C(=O)OCc2c1cc1n(c2=O)Cc2cc3c(CN(C)C)c(O)ccc3nc2-1 [Topotecan]
[5] = compound: COc1cc([C@@H]2c3cc4c(cc3[C@@H](O[C@@H]3O[C@@H]5CO[C@@H](C)O[C@H]5[C@H](O)[C@H]3O)[C@H]3COC(=O)[C@H]23)OCO4)cc(OC)c1O [Etoposide]
[6] = compound: COc1cccc(OCCCN)c1-c1cc(Nc2cnc(C#N)cn2)n[nH]1
[7] = compound: N.N.Cl[Pt]Cl [Cisplatin]
[8] = compound: CC(=O)c1c(C)c2cnc(Nc3ccc(N4CCN(CCOCCOCCOCCNC(=O)COc5cccc6c5C(=O)N(C5CCC(=O)NC5=O)C6=O)CC4)cn3)nc2n(C2CCCC2)c1=O [BSJ-03-123]; test: GR value, 72 h; higher = faster growth (1 = untreated, <0 = killing);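 note: breast cancer and non-malignant breast epithelial lines, nine half-log doses, viable cells counted by Hoechst and LIVE/DEAD dye imaging versus time-zero plates and DMSO controls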
[9] = compound: CCOc1cc2ncc(C#N)c(Nc3ccc(OCc4ccccn4)c(Cl)c3)c2cc1NC(=O)/C=C/CN(C)C [Neratinib/HKI272]; test: as above
[10] = compound: CO[C@H]1C[C@@H]2CC[C@@H](C)[C@@](O)(O2)C(=O)C(=O)N2CCCC[C@H]2C(=O)O[C@H]([C@H](C)C[C@@H]2CC[C@@H](OCCO)[C@H](OC)C2)CC(=O)[C@H](C)/C=C(\C)[C@@H](O)[C@@H](OC)C(=O)[C@H](C)C[C@H](C)/C=C/C=C/C=C/1C [Everolimus]
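Throughout, for GR50, 72 h: breast cancer and non-malignant breast epithelial cell lines, Deep Dye Drop or Dye Drop imaging, nine half-log doses, GR normalized to time-zero plates and DMSO-only controls.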

Cell Line | GR50, 72 h [1] [µM] | GR50, 72 h [2] [µM] | GR50, 72 h [3] [µM] | GR50, 72 h [4] [µM] | GR50, 72 h [5] [µM] | GR50, 72 h [6] [µM] | GR50, 72 h [7] [µM] | GR value ([8]; 0.001 µM) [GR] | GR value ([8]; 0.003162 µM) [GR] | GR value ([8]; 0.01 µM) [GR] | GR value ([8]; 0.03162 µM) [GR] | GR value ([8]; 0.1 µM) [GR] | GR value ([8]; 0.3162 µM) [GR] | GR value ([8]; 1 µM) [GR] | GR value ([8]; 3.162 µM) [GR] | GR value ([8]; 10 µM) [GR] | GR value ([9]; 0.0003162 µM) [GR] | GR value ([9]; 0.001 µM) [GR] | GR value ([9]; 0.003162 µM) [GR] | GR value ([9]; 0.01 µM) [GR] | GR value ([9]; 0.03162 µM) [GR] | GR value ([9]; 0.1 µM) [GR] | GR value ([9]; 0.3162 µM) [GR] | GR value ([9]; 1 µM) [GR] | GR value ([9]; 3.162 µM) [GR] | GR50, 72 h [10] [µM]
HCC1419 | < 0.001 | 4.04 | 0.00703 | 0.00719 | 0.736 | 0.000648 | 1.79 | 0.753 | 0.75 | 0.669 | 0.644 | 0.643 | 0.527 | 0.432 | 0.443 | 0.165 | 0.769 | 0.611 | 0.148 | 0.0675 | -0.097 | -0.159 | -0.26 | -0.404 | -0.494 | –
HCC1937 | 0.00225 | 0.187 | 0.00546 | 0.0155 | 0.355 | 0.000607 | 0.777 | 1.11 | 1.04 | 0.933 | 1.05 | 0.961 | 1.03 | 0.918 | 0.977 | 0.525 | 0.987 | 1.03 | 0.951 | 0.945 | 0.897 | 0.824 | 0.735 | 0.633 | 0.295 | > 10
HTERT_HME1 | < 0.001 | 0.207 | 0.00584 | 0.00727 | 0.138 | 0.000593 | 1.12 | 0.903 | 0.87 | 0.78 | 0.635 | 0.702 | 0.551 | 0.386 | 0.34 | -0.153 | 1.07 | 1.09 | 1.08 | 1.01 | 0.89 | 0.57 | 0.349 | 0.269 | 0.105 | –
MDAMB361 | < 0.001 | 0.758 | 0.00904 | 0.0114 | 1.19 | 0.000459 | 2.63 | 1.09 | 0.828 | 0.927 | 0.784 | 0.659 | 0.489 | 0.32 | 0.309 | -0.0683 | 0.976 | 0.848 | 0.824 | 0.783 | 0.639 | 0.514 | 0.486 | 0.241 | -0.516 | < 0.001
MDAMB436 | 0.0324 | 0.855 | 0.00578 | 0.00594 | 0.26 | 0.000612 | 0.417 | 1.1 | 1.07 | 1.02 | 1.03 | 1.11 | 0.971 | 0.999 | 0.966 | -0.0484 | 1 | 0.997 | 1.03 | 1.04 | 0.993 | 0.878 | 0.641 | 0.43 | 0.0253 | > 10
